Read-outs that look alike come from different tables or passages of the source.
Legend:
Assay in all cases: 3D clonogenic assay (PDX)
Assay type in all cases: cell-based, human
PRXF MRI-H-1579 = details: PRXF MRI-H-1579, Prostate; for IC50: Homo sapiens
Method: (§1) The anti-tumor efficacy of S1 in the patient-derived tumor xenograft (PDX) tumor panel was assessed, where the efficacy of S1 in PDX tumor panel in the 96-well format, in 10 concentrations in duplicate was performed. Colony formation of tumor cell suspensions in a soft-agar matrix was observed and quantified. The output is IC50 values and dose response-relationships based on number of colonies in control and treatment wells, as identified by an automated image analysis algorithm. Stock solution of S1 was prepared in 100% DMSO at 10 mM concentration (stored at -20°C) and reused for each experiment. Compound final test concentrations: Dilution series ½ i.e.: 50µM, 15, 5, 1.5, 0.5, 0.15, 0.05, 0.015, 0.005 and 0.0015.
(§2) Tumor xenografts (also referred to as patient-derived tumor xenografts) were passaged as subcutaneous xenografts in NMRI nu/nu mice. Tumor xenograft were removed from mice under sterile conditions, mechanically disaggregated and subsequently incubated with an enzyme cocktail consisting of collagenase type IV (41 U/mL), DNase I (125 U/mL), hyaluronidase type III (100 U/mL) and dispase II (1.0 U/mL) in RPMI 1640 medium at 37°C for 60 - 120 minutes. Cells were passed through sieves of 100 µm and 40 µm mesh size and washed with RPMI 1640 medium. The percentage of viable cells was determined in a Neubauer-hemocytometer using trypan blue exclusion. Aliquots of the cells were frozen down, and stored in liquid nitrogen.
(§3) The clonogenic assay test was carried out in 96 well plate format. For each test a frozen aliquot of tumor cells prepared from tumor xenografts was thawed and assay plates were prepared as follows: each test well contained 3 layers of equal volume, 2 layers of semi-solid medium (bottom and top layer), and one layer of medium supernatant, with or without test compound. The bottom layer consisted of 0.05 mL/well Iscove's Modified Dulbecco's Medium (Invitrogen), supplemented with 20% (v/v) fetal calf serum (Sigma), 0.01% (w/v) gentamicin (Invitrogen) and 0.75% (w/v) agar (BD Biosciences). Tumor cells were added to 0.05 mL of the same culture medium supplemented with 0.4% (w/v) agar and plated onto the bottom layer. After 24 h, test compounds were added after serial dilution in DMSO and transfer in cell culture medium, and left on the cells for the duration of the experiment (continuous exposure, 0.05 mL drug overlay). Every dish included six untreated control wells and drug-treated groups in duplicate at 10 concentrations. Cultures were incubated at 37 °C and 7.5% CO2 in a humidified atmosphere for 8 to 13 days and monitored closely for colony growth using an inverted microscope. Within this period, ex vivo tumor growth lead to the formation of colonies with a diameter of >50 µm. At the time of maximum colony formation, counts were performed with an automatic image analysis system. 24 h prior to evaluation, vital colonies were stained with a sterile aqueous solution of 2-(4-iodophenyl)-3-(4-nitrophenyl)-5-phenyltetrazolium chloride (1 mg/mL, 100 µL/well). Sigmoidal concentration-response curves were fitted to the data points obtained for each tumor model using 4 parameter non-linear curve fit (Oncotest Warehouse Software). IC50 values are reported as relative IC50 values, being the concentration of test compound that give a response (inhibition of colony formation/viability) half way between the top and bottom plateau of the sigmoidal concentration-response curve (inflection point of the curve), or as absolute IC50 values, being the concentration of test compound at the intersection of the concentration-response curves with T/C = 50%. For calculation of mean IC50 values the geometric mean was used. Results are presented as mean graph plots or heat maps (individual IC50 values relative to the geometric mean IC50 value) over all cell lines as tested.

MEXF 672 = details: MEXF 672, Melanoma; for IC50: Homo sapiens
Method: as §1, §2, §3

LXFA 1041 = details: LXFA 1041, Lung Adeno; for IC50: Homo sapiens
Method: as §1, §2, §3

BXF 1258 = details: BXF 1258, Bladder; for IC50: Homo sapiens
Method: as §1, §2, §3

PRXF PC-3M = details: Prostate; for IC50: Homo sapiens
Method: as §1, §2, §3

GXF 251 = details: GXF 251, Gastric; for IC50: Homo sapiens
Method: as §1, §2, §3

LXFA 983 = details: LXFA 983, Lung Adeno; for IC50: Homo sapiens
Method: as §1, §2, §3

PAXF 2045 = details: PAXF 2045, Pancreas; for IC50: Homo sapiens
Method: as §1, §2, §3

HNXF 908 = details: HNXF 908, Head and Neck; for IC50: Homo sapiens
Method: as §1, §2, §3

RXF 616 = details: RXF 616, Renal; for IC50: Homo sapiens
Method: as §1, §2, §3

GXA 3044 = details: GXA 3044, Asian Gastric; for IC50: Homo sapiens
Method: as §1, §2, §3

CXF 742 = details: CXF 742, Colorectal; for IC50: Homo sapiens
Method: as §1, §2, §3

IC50 (PRXF MRI-H-1579; read-out: abs. IC50): 8.94 µM
IC50 (PRXF MRI-H-1579; read-out: rel. IC50): 8.76 µM
IC50 (MEXF 672; read-out: abs. IC50): 8.96 µM
IC50 (MEXF 672; read-out: rel. IC50): 8.56 µM
IC50 (LXFA 1041; read-out: abs. IC50): 5.3 µM
IC50 (LXFA 1041; read-out: rel. IC50): 5.25 µM
IC50 (BXF 1258; read-out: abs. IC50): 7.47 µM
IC50 (BXF 1258; read-out: rel. IC50): 2.54 µM
IC50 (PRXF PC-3M; read-out: abs. IC50): 16.9 µM
IC50 (PRXF PC-3M; read-out: rel. IC50): 16.9 µM
IC50 (GXF 251; read-out: abs. IC50): 6.02 µM
IC50 (GXF 251; read-out: rel. IC50): 5.26 µM
IC50 (LXFA 983; read-out: abs. IC50): 4.81 µM
IC50 (LXFA 983; read-out: rel. IC50): 4.6 µM
IC50 (PAXF 2045; read-out: abs. IC50): 8.14 µM
IC50 (PAXF 2045; read-out: rel. IC50): 7.03 µM
IC50 (HNXF 908; read-out: abs. IC50): 5.19 µM
IC50 (HNXF 908; read-out: rel. IC50): 5.12 µM
IC50 (RXF 616; read-out: abs. IC50): 8.81 µM
IC50 (RXF 616; read-out: rel. IC50): 8.77 µM
IC50 (GXA 3044; read-out: abs. IC50): 9.08 µM
IC50 (GXA 3044; read-out: rel. IC50): 8.95 µM
IC50 (CXF 742; read-out: abs. IC50): 41.3 µM
IC50 (CXF 742; read-out: rel. IC50): 41.3 µM
Structure (SMILES): O[C@H](c1cc(-c2ccc(Cl)cc2)nc2ccccc12)[C@@H]1CCCCN1 [S1, (R)-(2-(4-chlorophenyl)quinolin-4-yl)((S)-piperidin-2-yl)methanol]
b (bottom plateau of concentration-effect curve) (PRXF MRI-H-1579): 21
t (top plateau of concentration-effect curve) (PRXF MRI-H-1579): 112
b (bottom plateau of concentration-effect curve) (MEXF 672): 39
t (top plateau of concentration-effect curve) (MEXF 672): 96
b (bottom plateau of concentration-effect curve) (LXFA 1041): 10
t (top plateau of concentration-effect curve) (LXFA 1041): 95
b (bottom plateau of concentration-effect curve) (BXF 1258): 44
t (top plateau of concentration-effect curve) (BXF 1258): 103
b (bottom plateau of concentration-effect curve) (PRXF PC-3M): 3
t (top plateau of concentration-effect curve) (PRXF PC-3M): 98
b (bottom plateau of concentration-effect curve) (GXF 251): 34
t (top plateau of concentration-effect curve) (GXF 251): 111
b (bottom plateau of concentration-effect curve) (LXFA 983): 30
t (top plateau of concentration-effect curve) (LXFA 983): 96
b (bottom plateau of concentration-effect curve) (PAXF 2045): 22
t (top plateau of concentration-effect curve) (PAXF 2045): 95
b (bottom plateau of concentration-effect curve) (HNXF 908): 17
t (top plateau of concentration-effect curve) (HNXF 908): 90
b (bottom plateau of concentration-effect curve) (RXF 616): 17
t (top plateau of concentration-effect curve) (RXF 616): 89
b (bottom plateau of concentration-effect curve) (GXA 3044): 15
t (top plateau of concentration-effect curve) (GXA 3044): 101
b (bottom plateau of concentration-effect curve) (CXF 742): 0
t (top plateau of concentration-effect curve) (CXF 742): 100

Source: patent EP3064205A1, “Therapeutic use of isomeric forms of 2-(4-chlorophenyl)quinolin-4-yl)(piperidin-2-yl)methanol” (Glionova AB, priority 2015, dated 2016)
